Usually EC50 stands for the concentration needed to bring the measured effect to its halfway point. Read a low EC50 as an effect from little substance.

The text below walks through data of patent publication EP2842965A1, “Neuromedin U analogs comprising serum albumin binding amino acid residue” (Gubra ApS, priority 2013, dated 2015).

Starred links: 1 amine or outer side, 2 acyl side, 3 side chain; linkers in the order of their positions; H or OH if unused. Residues, ends and D or L forms follow the SMILES beside them. Groups on a side chain read outwards from the residue. *: point of attachment. γGlu = O=C(O)[C@H](CCC(=O)[*:2])N[*:1]; Palmitoyl = CCCCCCCCCCCCCCCC(=O)*

This experiment deals with T1, Neuromedin U receptor 2 (NMUR2) (Homo sapiens, UniProt Q9GZQ4).
T1 construct: expressed in transfected cells; host or cells: HEK293 cells, transient calcium phosphate transfection; the empty-vector control is pcDNA3
T1 sequence (Q9GZQ4 whole entry): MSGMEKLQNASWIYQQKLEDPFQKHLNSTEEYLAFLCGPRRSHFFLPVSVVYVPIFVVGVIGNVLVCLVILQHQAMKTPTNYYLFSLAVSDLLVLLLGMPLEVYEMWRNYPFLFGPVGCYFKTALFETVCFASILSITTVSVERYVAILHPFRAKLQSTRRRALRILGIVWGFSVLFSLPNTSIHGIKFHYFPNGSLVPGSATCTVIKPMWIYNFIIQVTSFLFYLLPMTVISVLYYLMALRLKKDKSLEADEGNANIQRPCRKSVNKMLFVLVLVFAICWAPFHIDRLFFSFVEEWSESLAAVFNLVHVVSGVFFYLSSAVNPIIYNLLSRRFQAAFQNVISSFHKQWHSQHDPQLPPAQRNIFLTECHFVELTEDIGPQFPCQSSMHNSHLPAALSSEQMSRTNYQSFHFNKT
Briefly: Functional assay (IP3 SPA-ysi assay) in HEK293 cells transfected with NMUR2. Type of experiment: cell-based. The conditions noted are these: HEK293 cells transiently transfected with NMUR2; head says cAMP, method describes IP3 SPA readout. As to the method: All compounds were dissolved in dimethyl sulfoxide (DMSO), and then water was added (total DMSO conc. was 80%). The stock concentration was 1 mM for all the compounds. Stocks were alliquoted and frozen -20°C.
The day before each assay a new standard row was prepared by dilution of the stock solution in assay buffer (1 mM acetic acid + 0.1% bovine serum albumin (BSA)). The following concentrations were prepared (depending on the ligand potency): 10^-5, 10^-6, 10^-7, 10^-7.5, 10^-8, 10^-8.5, 10^-9, 10^-10, 10^-11, 10^-12 M.
Cell cultures: The HEK293 cells are grown in (DMEM31966 glutamax supplemented with 10% FBS (fetal bovine serum) and 1% penicillin G and streptomycin) and incubated at 37°C with 10% CO2 in a humidified atmosphere. The cells were split as follows. HEK293 cells approximately 80% confluent was used. The cells were removed from the bottom of the bottle by removing the media (DMEM31966 glutamax supplemented with 10% FBS and 1% penicillin G and streptomycin), rinsed with 5 mL phosphate buffered saline (PBS) and shaken gently. The PBS was removed and cells were released from the bottom with trypsin (1-2 mL) and incubated for 2-3 min. The flasks were then turned gently to ensure complete release of the cells from the bottom. Then media was added to the cells, (5-8 mL was used to rinse the cells of the bottom, this process was repeated approximately 4 times using the same media). Cell suspension was then transferred to a new bottle (approximately 4 × 10^6 cells per 175 cm^2 flask) and 20 mL media was added. Cells were incubated at 37°C with 10% CO2 in a humidified atmosphere.
Transfection of cells: HEK293 cells were seeded out at the density of 8 × 10^6 cells per 175 cm^2 flask 1 day prior to the transfection. Before transfection of cells, the culture medium was aspirated and half of the standard volume was added. 40 µg receptor-containing plasmid (Neuromedin U receptor 1 (NMUR1) or Neuromedin U receptor 2 (NMUR2)) or "empty" vector plasmid (pcDNA3), as a negative control, was mixed with 60 µL […] CaCl2 and Tris-EDTA (TE) buffer (10 mM tris(hydroxymethyl)aminomethane hydrochloride (Tris HCl), 1 mM ethylenedinitrilotetraacetic acid (EDTA), pH 7.5) to a total volume of 480 µL. The mixture was added drop-wise to another tube containing 480 µL 2 × HEPES buffered saline (HBS buffer) (280 mM NaCl, 50 mM 4-(2-Hydroxyethyl)piperazine-1-ethanesulfonic acid (HEPES), 1.5 mM NaHPO4, pH 7.2) and left for 45 min at room temperature for DNA precipitation. Afterwards, the precipitate was added carefully to the cells and cells were incubated for 5 hours at normal culture conditions. The transfection was stopped by change of the DNA-containing medium with 20 mL of fresh cell culture medium.
Seeding of the cells in 96 well plates: One day after transfection, cells were harvested using trypsin as described above. The cells were seeded in a poly-D-lysine coated clear 96 well plate. 100 µL cell suspension 350.000 cells/mL was added. 3H-myo-inositol (5µL/mL) was added to each well yielding a concentration of 35000 cells/well. The cells were incubated overnight before assay procedure the following day.
IP3 SPA-ysi assay: The media was removed and the plates were washed with 200 µL of Hank's balanced salt solution (HBSS) (Gibco, Life Technologies). 100 µL of HBSS/10 mM LiCl was added and the plates were incubated 15 min at 37°C. 5 µL ligand was added to each well and the plate was incubated at 37°C for 70-90 min (incubation time was approximately 1 h and 16 min for all plates). The plates were placed on ice and 50 µL formic acid (10 mM) was added to each well. The plates was left on ice for at least 30 min. 20 µL was then transferred to a white 96 well plate and 80 µL yttrium silicate (YSi) SPA-beads RPNQ0010 (Perkin Elmer) solution (0.0125 g/mL) is added to each well. The plates were sealed and shaken on high speed for 30 min, then centrifuged for 5 min at 1500 rpm and counted with 8 hours delay in the top counter. […]
For `CCCCCCCCCCCCCCCC(=O)N[C@@H](CCC(=O)NCCCC[C@H](NC(=O)[C@H](CCC(N)=O)NC(=O)[C@H](CO)NC(=O)[C@H](C)NC(=O)[C@H](Cc1ccccc1)NC(=O)[C@@H]1CCCN1C(=O)[C@H](CO)NC(=O)[C@H](CCC(N)=O)NC(=O)[C@H](Cc1ccccc1)NC(=O)[C@H](CCC(=O)O)NC(=O)[C@H](CCC(=O)O)NC(=O)[C@H](CC(=O)O)NC(=O)[C@@H](NC(=O)[C@H](CCCNC(=N)N)NC(=O)[C@@H](N)Cc1ccccc1)C(C)C)C(=O)N[C@@H](CCCNC(=N)N)C(=O)NCC(=O)N[C@@H](Cc1ccc(O)cc1)C(=O)N[C@@H](Cc1ccccc1)C(=O)N[C@@H](CC(C)C)C(=O)N[C@@H](Cc1ccccc1)C(=O)N[C@@H](CCCNC(=N)N)C(=O)N1CCC[C@H]1C(=O)N[C@@H](CCCNC(=N)N)C(=O)N[C@@H](CC(N)=O)C(N)=O)C(=O)O` [SEQ ID NO 5] (H-FRVDEEFQSPFASQK([γGlu-Palmitoyl])RGYFLFRPRN-NH2), the EC50 was found to be 162 nM.

`CCCCCCCCCCCCCCCC(=O)N[C@@H](CCC(=O)NCCCC[C@H](NC(=O)[C@H](C)NC(=O)[C@H](Cc1ccccc1)NC(=O)[C@@H]1CCCN1C(=O)[C@H](CO)NC(=O)[C@H](CCC(N)=O)NC(=O)[C@H](Cc1ccccc1)NC(=O)[C@H](CCC(=O)O)NC(=O)[C@H](CCC(=O)O)NC(=O)[C@H](CC(=O)O)NC(=O)[C@@H](NC(=O)[C@H](CCCNC(=N)N)NC(=O)[C@@H](N)Cc1ccccc1)C(C)C)C(=O)N[C@@H](CCC(N)=O)C(=O)N[C@@H](CO)C(=O)N[C@@H](CCCNC(=N)N)C(=O)NCC(=O)N[C@@H](Cc1ccc(O)cc1)C(=O)N[C@@H](Cc1ccccc1)C(=O)N[C@@H](CC(C)C)C(=O)N[C@@H](Cc1ccccc1)C(=O)N[C@@H](CCCNC(=N)N)C(=O)N1CCC[C@H]1C(=O)N[C@@H](CCCNC(=N)N)C(=O)N[C@@H](CC(N)=O)C(N)=O)C(=O)O` [SEQ ID NO 8] (H-FRVDEEFQSPFAK([γGlu-Palmitoyl])QSRGYFLFRPRN-NH2) displayed an EC50 of 155 nM.

Consider `CCCCCCCCCCCCCCCC(=O)N[C@@H](CCC(=O)NCCCC[C@H](NC(=O)[C@H](CCC(=O)O)NC(=O)[C@H](CC(=O)O)NC(=O)[C@@H](NC(=O)[C@H](CCCNC(=N)N)NC(=O)[C@@H](N)Cc1ccccc1)C(C)C)C(=O)N[C@@H](Cc1ccccc1)C(=O)N[C@@H](CCC(N)=O)C(=O)N[C@@H](CO)C(=O)N1CCC[C@H]1C(=O)N[C@@H](Cc1ccccc1)C(=O)N[C@@H](C)C(=O)N[C@@H](CO)C(=O)N[C@@H](CCC(N)=O)C(=O)N[C@@H](CO)C(=O)N[C@@H](CCCNC(=N)N)C(=O)NCC(=O)N[C@@H](Cc1ccc(O)cc1)C(=O)N[C@@H](Cc1ccccc1)C(=O)N[C@@H](CC(C)C)C(=O)N[C@@H](Cc1ccccc1)C(=O)N[C@@H](CCCNC(=N)N)C(=O)N1CCC[C@H]1C(=O)N[C@@H](CCCNC(=N)N)C(=O)N[C@@H](CC(N)=O)C(N)=O)C(=O)O` [SEQ ID NO 14] (H-FRVDEK([γGlu-Palmitoyl])FQSPFASQSRGYFLFRPRN-NH2), for which the response was half-maximal at 52.8 nM (EC50).

Compound `CCCCCCCCCCCCCCCC(=O)N[C@@H](CCC(=O)NCCCC[C@H](NC(=O)[C@@H](NC(=O)[C@H](CCCNC(=N)N)NC(=O)[C@@H](N)Cc1ccccc1)C(C)C)C(=O)N[C@@H](CCC(=O)O)C(=O)N[C@@H](CCC(=O)O)C(=O)N[C@@H](Cc1ccccc1)C(=O)N[C@@H](CCC(N)=O)C(=O)N[C@@H](CO)C(=O)N1CCC[C@H]1C(=O)N[C@@H](Cc1ccccc1)C(=O)N[C@@H](C)C(=O)N[C@@H](CO)C(=O)N[C@@H](CCC(N)=O)C(=O)N[C@@H](CO)C(=O)N[C@@H](CCCNC(=N)N)C(=O)NCC(=O)N[C@@H](Cc1ccc(O)cc1)C(=O)N[C@@H](Cc1ccccc1)C(=O)N[C@@H](CC(C)C)C(=O)N[C@@H](Cc1ccccc1)C(=O)N[C@@H](CCCNC(=N)N)C(=O)N1CCC[C@H]1C(=O)N[C@@H](CCCNC(=N)N)C(=O)N[C@@H](CC(N)=O)C(N)=O)C(=O)O` [SEQ ID NO 17] (H-FRVK([γGlu-Palmitoyl])EEFQSPFASQSRGYFLFRPRN-NH2) came in with a concentration giving a half-maximal response (EC50) of 50.5 nM.
